Assay results as given in patent US20260022142A1, “MACROCYCLIC IMMUNOMODULATORS” (Bristol-Myers Squibb Company, priority 2022, published 2026).
Bridge positions count the residues as written; N and C are the ends. Square brackets hold non-standard residues; d marks the D form. Peptide text beside a SMILES is read from it. * marks the point of attachment. Phe(4-COOH) = N[C@@H](Cc1ccc(C(=O)O)cc1)C(=O)O; Bip = N[C@@H](Cc1ccc(-c2ccccc2)cc1)C(=O)O; NH(CH2)14COOH = O=C(O)CCCCCCCCCCCCCCN*; Phe(3-Me) = Cc1cccc(C[C@H](N)C(=O)O)c1; NH(CH2)12COOH = O=C(O)CCCCCCCCCCCCN*; Val(3-OH) = CC(C)(O)[C@H](N)C(=O)O; 4Pal = N[C@@H](Cc1ccncc1)C(=O)O; Cha = N[C@@H](CC1CCCCC1)C(=O)O; Carboxymethyl = O=C(O)C*; Orn = NCCC[C@H](N)C(=O)O; Aun = NCCCCCCCCCCC(=O)O; Dab = NCC[C@H](N)C(=O)O; Nva = CCC[C@H](N)C(=O)O; Abu = CC[C@H](N)C(=O)O; AEEA = NCCOCCOCC(=O)O

Target: T1, PD-1/PD-L1 interaction (PE-labeled human PD-L1-Ig binding to Jurkat cell line over-expressing human PD-1) (Homo sapiens, UniProt Q15116)
T1 construct: expressed in transfected cells; host or cells: Jurkat
Assay: Jurkat-PD-1 Cell Binding High-Content Screening Assay (CBA)
Format: cell-based
Settings: Jurkat cell line over-expressing human PD-1; PE-labeled PD-L1-Ig 20 nM final; read-out: Jurkat hPD1-PDL1 IC50
Procedure, shortened: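 Jurkat cells over-expressing human PD-1 (8×10^3 per well, DMEM/10% FCS) preincubated with compound 2 h at 37° C, then PE-labeled human PD-L1-Ig (20 nM final) added for 1 h. Cells fixed with paraformaldehyde, Hoechst-stained, and bound fluorescence quantified by high-content imaging.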

T1 sequence (Q15116 25-288): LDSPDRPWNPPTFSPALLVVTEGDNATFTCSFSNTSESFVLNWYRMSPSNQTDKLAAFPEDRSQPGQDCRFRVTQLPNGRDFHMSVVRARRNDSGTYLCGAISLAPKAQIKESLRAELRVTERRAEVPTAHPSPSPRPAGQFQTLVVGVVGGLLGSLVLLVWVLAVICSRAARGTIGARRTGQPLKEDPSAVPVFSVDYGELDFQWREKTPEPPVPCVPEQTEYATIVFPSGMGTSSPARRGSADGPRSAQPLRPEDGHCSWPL

SMILES | IC50 [nM]
Cc1cccc(C[C@@H]2NC(=O)[C@H](CC(=O)O)NC(=O)[C@H](Cc3ccc(OCC(=O)O)cc3)NC(=O)[C@H](CCN)NC(=O)CSC[C@@H](C(=O)N[C@@H](CCN)C(=O)NCCOCCOCC(=O)NCCOCCOCC(=O)NCCCCCCCCCCCCC(=O)O)NC(=O)[C@H](CO)NC(=O)[C@H](C(C)(C)O)NC(=O)[C@H](CC3CCCCC3)NC(=O)[C@H](Cc3c[nH]cn3)NC(=O)[C@@H](CC(C)C)NC(=O)[C@H](CCCN)NC(=O)[C@H](Cc3ccc(OCC(=O)O)cc3)NC(=O)[C@H](Cc3ccc(-c4ccccc4)cc3)NC(=O)[C@H](Cc3ccc(OCC(=O)O)cc3)NC2=O)c1 [Compound 2873] ({CH2CO}-[Dab]Y(Carboxymethyl)D[Phe(3-Me)]Y(Carboxymethyl)[Bip]Y(Carboxymethyl)[Orn][dL]H[Cha][Val(3-OH)]SC[Dab][AEEA][AEEA]-{NH(CH2)12COOH}; thioether N-14) | 34.5
Cc1cccc(C[C@@H]2NC(=O)[C@H](CC(=O)O)NC(=O)[C@H](Cc3ccc(OCC(=O)O)cc3)NC(=O)[C@H](CCN)NC(=O)CSC[C@@H](C(=O)N[C@@H](CCN)C(=O)NCCOCCOCC(=O)NCCCCCCCCCCCCC(=O)O)NC(=O)[C@H](CO)NC(=O)[C@H](C(C)(C)O)NC(=O)[C@H](CC3CCCCC3)NC(=O)[C@H](Cc3c[nH]cn3)NC(=O)[C@@H](CC(C)C)NC(=O)[C@H](CCCN)NC(=O)[C@H](Cc3ccc(OCC(=O)O)cc3)NC(=O)[C@H](Cc3ccc(-c4ccccc4)cc3)NC(=O)[C@H](Cc3ccc(OCC(=O)O)cc3)NC2=O)c1 [Compound 2875] ({CH2CO}-[Dab]Y(Carboxymethyl)D[Phe(3-Me)]Y(Carboxymethyl)[Bip]Y(Carboxymethyl)[Orn][dL]H[Cha][Val(3-OH)]SC[Dab][AEEA]-{NH(CH2)12COOH}; thioether N-14) | 8.3
Cc1cccc(C[C@@H]2NC(=O)[C@H](CC(=O)O)NC(=O)[C@H](Cc3ccc(OCC(=O)O)cc3)NC(=O)[C@H](CCN)NC(=O)CSC[C@@H](C(=O)N[C@@H](CCN)C(=O)NCCOCCOCC(=O)NCCCCCCCCCCCCCCC(=O)O)NC(=O)[C@H](CO)NC(=O)[C@H](C(C)(C)O)NC(=O)[C@H](CC3CCCCC3)NC(=O)[C@H](Cc3c[nH]cn3)NC(=O)[C@@H](CC(C)C)NC(=O)[C@H](CCCN)NC(=O)[C@H](Cc3ccc(OCC(=O)O)cc3)NC(=O)[C@H](Cc3ccc(-c4ccccc4)cc3)NC(=O)[C@H](Cc3ccc(OCC(=O)O)cc3)NC2=O)c1 [Compound 2876] ({CH2CO}-[Dab]Y(Carboxymethyl)D[Phe(3-Me)]Y(Carboxymethyl)[Bip]Y(Carboxymethyl)[Orn][dL]H[Cha][Val(3-OH)]SC[Dab][AEEA]-{NH(CH2)14COOH}; thioether N-14) | 212
CCC[C@@H]1NC(=O)CSC[C@@H](C(=O)N[C@@H](CCN)C(=O)NCCOCCOCC(=O)NCCCCCCCCCCC(=O)O)NC(=O)[C@H](CO)NC(=O)[C@H](C(C)(C)O)NC(=O)[C@H](CC2CCCCC2)NC(=O)[C@H](CCN)NC(=O)[C@@H](CC(C)C)NC(=O)[C@H](CCCN)NC(=O)[C@H](Cc2ccc(C(=O)O)cc2)NC(=O)[C@H](Cc2ccc(-c3ccccc3)cc2)NC(=O)[C@H](Cc2ccc(C(=O)O)cc2)NC(=O)[C@H](Cc2cccc(C)c2)NC(=O)[C@H](CC(=O)O)NC(=O)[C@H](Cc2ccc(OCC(=O)O)cc2)NC1=O [Compound 2877] ({CH2CO}-[Nva]Y(Carboxymethyl)D[Phe(3-Me)][Phe(4-COOH)][Bip][Phe(4-COOH)][Orn][dL][Dab][Cha][Val(3-OH)]SC[Dab][AEEA][Aun]-OH; thioether N-14) | 1.5
CC[C@@H]1NC(=O)CSC[C@@H](C(=O)N[C@@H](CCN)C(=O)NCCOCCOCC(=O)NCCCCCCCCCCC(=O)O)NC(=O)[C@H](CO)NC(=O)[C@H](C(C)(C)O)NC(=O)[C@H](CC2CCCCC2)NC(=O)[C@H](CCN)NC(=O)[C@@H](CC(C)C)NC(=O)[C@H](CCCN)NC(=O)[C@H](Cc2ccc(OCC(=O)O)cc2)NC(=O)[C@H](Cc2ccc(-c3ccccc3)cc2)NC(=O)[C@H](Cc2ccc(OCC(=O)O)cc2)NC(=O)[C@H](Cc2cccc(C)c2)NC(=O)[C@H](CC(=O)O)NC(=O)[C@H](Cc2ccc(OCC(=O)O)cc2)NC1=O [Compound 2879] ({CH2CO}-[Abu]Y(Carboxymethyl)D[Phe(3-Me)]Y(Carboxymethyl)[Bip]Y(Carboxymethyl)[Orn][dL][Dab][Cha][Val(3-OH)]SC[Dab][AEEA][Aun]-OH; thioether N-14) | 2.7
CC[C@@H]1NC(=O)CSC[C@@H](C(=O)N[C@@H](CCN)C(=O)NCCOCCOCC(=O)NCCOCCOCC(=O)NCCCCCCCCCCC(=O)O)NC(=O)[C@H](CO)NC(=O)[C@H](C(C)(C)O)NC(=O)[C@H](CC2CCCCC2)NC(=O)[C@H](CCN)NC(=O)[C@@H](CC(C)C)NC(=O)[C@H](CCCN)NC(=O)[C@H](Cc2ccc(C(=O)O)cc2)NC(=O)[C@H](Cc2ccc(-c3ccccc3)cc2)NC(=O)[C@H](Cc2ccc(C(=O)O)cc2)NC(=O)[C@H](Cc2cccc(C)c2)NC(=O)[C@H](CC(=O)O)NC(=O)[C@H](Cc2ccc(OCC(=O)O)cc2)NC1=O [Compound 2882] ({CH2CO}-[Abu]Y(Carboxymethyl)D[Phe(3-Me)][Phe(4-COOH)][Bip][Phe(4-COOH)][Orn][dL][Dab][Cha][Val(3-OH)]SC[Dab][AEEA][AEEA][Aun]-OH; thioether N-14) | 1.6
CCC[C@@H]1NC(=O)CSC[C@@H](C(=O)N[C@@H](CCN)C(=O)NCCOCCOCC(=O)NCCOCCOCC(=O)NCCCCCCCCCCCCC(=O)O)NC(=O)[C@H](CO)NC(=O)[C@H](C(C)(C)O)NC(=O)[C@H](CC2CCCCC2)NC(=O)[C@H](CCN)NC(=O)[C@@H](CC(C)C)NC(=O)[C@H](CCCN)NC(=O)[C@H](Cc2ccc(C(=O)O)cc2)NC(=O)[C@H](Cc2ccc(-c3ccccc3)cc2)NC(=O)[C@H](Cc2ccc(C(=O)O)cc2)NC(=O)[C@H](Cc2cccc(C)c2)NC(=O)[C@H](CC(=O)O)NC(=O)[C@H](Cc2ccc(OCC(=O)O)cc2)NC1=O [Compound 2883] ({CH2CO}-[Nva]Y(Carboxymethyl)D[Phe(3-Me)][Phe(4-COOH)][Bip][Phe(4-COOH)][Orn][dL][Dab][Cha][Val(3-OH)]SC[Dab][AEEA][AEEA]-{NH(CH2)12COOH}; thioether N-14) | 4.9
CCC[C@@H]1NC(=O)CSC[C@@H](C(=O)N[C@@H](CCN)C(=O)NCCOCCOCC(=O)NCCOCCOCC(=O)NCCCCCCCCCCCCCCC(=O)O)NC(=O)[C@H](CO)NC(=O)[C@H](C(C)(C)O)NC(=O)[C@H](CC2CCCCC2)NC(=O)[C@H](CCN)NC(=O)[C@@H](CC(C)C)NC(=O)[C@H](CCCN)NC(=O)[C@H](Cc2ccc(C(=O)O)cc2)NC(=O)[C@H](Cc2ccc(-c3ccccc3)cc2)NC(=O)[C@H](Cc2ccc(C(=O)O)cc2)NC(=O)[C@H](Cc2cccc(C)c2)NC(=O)[C@H](CC(=O)O)NC(=O)[C@H](Cc2ccc(OCC(=O)O)cc2)NC1=O [Compound 2884] ({CH2CO}-[Nva]Y(Carboxymethyl)D[Phe(3-Me)][Phe(4-COOH)][Bip][Phe(4-COOH)][Orn][dL][Dab][Cha][Val(3-OH)]SC[Dab][AEEA][AEEA]-{NH(CH2)14COOH}; thioether N-14) | 133
COc1ccc(C[C@@H]2NC(=O)[C@H](Cc3cccc(C)c3)NC(=O)[C@H](CC(=O)O)NC(=O)[C@H](Cc3ccc(C(=O)O)cc3)NC(=O)[C@H](Cc3ccncc3)NC(=O)CSC[C@@H](C(=O)N[C@@H](CCN)C(=O)NCCOCCOCC(=O)NCCOCCOCC(=O)NCCCCCCCCCCCCCCC(=O)O)NC(=O)[C@H](CO)NC(=O)[C@H](C(C)(C)O)NC(=O)[C@H](CC3CCCCC3)NC(=O)[C@H](CCN)NC(=O)[C@@H](CC(C)C)NC(=O)[C@H](CCCN)NC(=O)[C@H](Cc3ccc(C(=O)O)cc3)NC(=O)[C@H](Cc3ccc(-c4ccccc4)cc3)NC2=O)cc1 [Compound 2885] ({CH2CO}-[4Pal][Phe(4-COOH)]D[Phe(3-Me)]Y(Me)[Bip][Phe(4-COOH)][Orn][dL][Dab][Cha][Val(3-OH)]SC[Dab][AEEA][AEEA]-{NH(CH2)14COOH}; thioether N-14) | 2690
Cc1cccc(C[C@@H]2NC(=O)[C@H](CC(=O)O)NC(=O)[C@H](Cc3ccc(C(=O)O)cc3)NC(=O)[C@H](CCN)NC(=O)CSC[C@@H](C(=O)N[C@@H](CCN)C(=O)NCCOCCOCC(=O)NCCOCCOCC(=O)NCCCCCCCCCCCCC(=O)O)NC(=O)[C@H](Cc3c[nH]cn3)NC(=O)[C@H](C(C)(C)O)NC(=O)[C@H](CC3CCCCC3)NC(=O)[C@H](CCN)NC(=O)[C@@H](CC(C)C)NC(=O)[C@H](CCCN)NC(=O)[C@H](Cc3ccc(C(=O)O)cc3)NC(=O)[C@H](Cc3ccc(-c4ccccc4)cc3)NC(=O)[C@H](Cc3ccc(C(=O)O)cc3)NC2=O)c1 [Compound 2886] ({CH2CO}-[Dab][Phe(4-COOH)]D[Phe(3-Me)][Phe(4-COOH)][Bip][Phe(4-COOH)][Orn][dL][Dab][Cha][Val(3-OH)]HC[Dab][AEEA][AEEA]-{NH(CH2)12COOH}; thioether N-14) | 10
Cc1cccc(C[C@@H]2NC(=O)[C@H](CC(=O)O)NC(=O)[C@H](Cc3ccc(OCC(=O)O)cc3)NC(=O)[C@H](CCN)NC(=O)CSC[C@@H](C(=O)N[C@@H](CCN)C(=O)NCCOCCOCC(=O)NCCOCCOCC(=O)NCCCCCCCCCCCCC(=O)O)NC(=O)[C@H](CO)NC(=O)[C@H](C(C)(C)O)NC(=O)[C@H](CC3CCCCC3)NC(=O)[C@H](Cc3c[nH]cn3)NC(=O)[C@@H](CC(C)C)NC(=O)[C@H](CCCN)NC(=O)[C@H](Cc3ccc(C(=O)O)cc3)NC(=O)[C@H](Cc3ccc(-c4ccccc4)cc3)NC(=O)[C@H](Cc3ccc(C(=O)O)cc3)NC2=O)c1 [Compound 2887] ({CH2CO}-[Dab]Y(Carboxymethyl)D[Phe(3-Me)][Phe(4-COOH)][Bip][Phe(4-COOH)][Orn][dL]H[Cha][Val(3-OH)]SC[Dab][AEEA][AEEA]-{NH(CH2)12COOH}; thioether N-14) | 18.4
